Consider eleven compounds from ChEMBL document CHEMBL1201862, “PubChem BioAssay data set” (2004).

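Compound exposure: 48 hours, 5 concentrations, 96-well plates. GI50 is the concentration that inhibits growth by half.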 Calls of active or inactive are those of the source. No stated cut-off is given here; in the data, active = GI50 up to about 1.1 µM and inactive = higher. A value given as a limit tells only on which side of the number the result lay.

Assay in all cases: NCI anticancer screen, dose series, 48 h
The subject of assay [1] is 786-0.
Assay [2] has as its system CAKI-1.
The subject of assay [3] is CCRF-CEM.
In assay [4] the test system is HL-60.
Assay [5] relates to K562.
The test system of assay [6] is MOLT-4.
Assay [7] deals with Malme-3M.
The test system of assay [8] is NCI-H226.
The subject of assay [9] is OVCAR-4.
Assay [10] relates to OVCAR-5.
For assay [11], the system named is RPMI-8226.
In assay [12] the test system is RXF 393.
Assay [13] has as its system SK-MEL-2.
The test system of assay [14] is SK-MEL-5.
The subject of assay [15] is SR.
For assay [16], the system named is TK-10.
Assay [17] concerns UACC-257.
Assay [18] deals with UACC-62.

With `O=C1C=C(Nc2ccc(S(=O)(=O)Nc3ncccn3)cc2)c2ccccc2C1=O`, the GI50 in assay [1] was 19.8 µM (inactive); in assay [2], 32.1 µM (inactive); in assay [3], 26.3 µM (inactive); in [4] it was 25.4 µM (inactive); in assay [5], 15.6 µM (inactive); in [6], 48.5 µM (inactive). Also, the GI50 in assay [7] was 23.9 µM (inactive); in assay [8], 28.4 µM (inactive); in assay [9] it was 21.8 µM (inactive); in [10] it was 19.5 µM (inactive); in [11], 37.6 µM (inactive); in assay [12] it was 23.3 µM (inactive). Moreover, the GI50 in assay [13] is 18.4 µM (inactive); in assay [14] it was 18.2 µM (inactive); in [15], 8.53 µM (inactive); in assay [16], 37.4 µM (inactive); in assay [17], 20.1 µM (inactive); in assay [18] it was 17.9 µM (inactive).

On to `CC1(c2ccc[n+](Cc3ccccc3)c2)OCCO1`, for which the GI50 in assay [1], in [2], in [3], in assay [4], in assay [5] and in [6] was > 100 µM (inactive) each time. In addition, the GI50 in assay [7], in assay [8], in assay [9], in [10], in [11] and in assay [12] was > 100 µM (inactive) throughout. Moreover, the GI50 in assay [13], in [14], in [15], in [16], in [17] and in assay [18] was > 100 µM (inactive) each time.

Consider `O=C1NC(=S)NC(=O)C1=CC1CC1`, for which the GI50 in assay [1], in [2], in [3], in assay [4], in assay [5] and in assay [6] was > 100 µM (inactive) each time. For the same compound, the GI50 in assay [7], in assay [8], in assay [9], in assay [10], in [11] and in assay [12] was > 100 µM (inactive) throughout. The GI50 in [13], in assay [14], in [15], in [16], in assay [17] and in assay [18] was > 100 µM (inactive) each time.

Turning to `C[C@]12CCC(=O)C=C1CC[C@@H]1[C@@H]2[C@@H](O)C[C@@]2(C)[C@H]1CC[C@]2(O)C(=O)COC(=O)CCC1CCCC1` [HYDROCORTISONE CYPIONATE], the GI50 was > 100 µM (inactive) in [1]; 87.5 µM (inactive) in assay [2]; 95.9 µM (inactive) in [3]; 72.9 µM (inactive) in assay [4]; > 100 µM (inactive) in assay [6]; > 100 µM (inactive) in assay [7]. Moreover, the GI50 is 0.0728 µM (active) in assay [8]; 0.0881 µM (active) in [10]; > 100 µM (inactive) in [12]; > 100 µM (inactive) in [14]; > 100 µM (inactive) in [15]; > 100 µM (inactive) in assay [16]. Also, the GI50 in assay [17] and in assay [18] was > 100 µM (inactive) each time.

Regarding `CCCN(CCCC(NC(C)=O)C(=O)NCc1ccccc1)C(=O)NCCCl` (stereo not drawn), the GI50 in assay [1], in [2], in assay [3], in assay [4], in assay [5] and in assay [6] was > 100 µM (inactive) throughout. The GI50 in [7], in assay [8], in assay [9], in [11], in assay [12] and in assay [13] was > 100 µM (inactive) in each case. The GI50 in assay [15], in assay [16], in assay [17] and in assay [18] was > 100 µM (inactive) in each case.

Regarding `CCOc1ccc(/N=N/c2ccc3oc(=O)c(/C(C)=N\NC(=O)CC(=O)Nc4ccc(Cl)cc4)cc3c2)cc1`, the GI50 in assay [2] was > 100 µM (inactive); in assay [3], 0.337 µM (active); in [5] it was 17.3 µM (inactive); in assay [6] it was 4.09 µM (inactive); in [7], 16 µM (inactive); in assay [8], 88.9 µM (inactive). For the same compound, the GI50 was 20.4 µM (inactive) in assay [9]; 99.5 µM (inactive) in [10]; 16.2 µM (inactive) in assay [11]; 14.2 µM (inactive) in assay [12]; 3.43 µM (inactive) in assay [13]; 14.3 µM (inactive) in assay [14]. Moreover, the GI50 was 3.47 µM (inactive) in [15], 12.9 µM (inactive) in assay [16] and 10.1 µM (inactive) in [18].

For the compound `O=C(C(O)c1cn(Cc2ccccc2)c2ccccc12)N1CCCCC1` (stereo not drawn), the GI50 in [1] was > 100 µM (inactive); in [3] it was 67.1 µM (inactive); in assay [4], > 100 µM (inactive); in [5] it was 30.2 µM (inactive); in [6] it was 39.9 µM (inactive); in assay [7] it was > 100 µM (inactive). Also, the GI50 is 34.4 µM (inactive) in assay [8]; > 100 µM (inactive) in assay [10]; > 100 µM (inactive) in [11]; > 10 µM (inactive) in assay [12]; > 100 µM (inactive) in [13]; 30.1 µM (inactive) in assay [14]. Besides, the GI50 in [15] is > 100 µM (inactive); in assay [16], > 10 µM (inactive); in [17], 48.9 µM (inactive); in assay [18] it was 95.1 µM (inactive).

On to `CCOC(=O)C1=C(OC(OCC)C(C)[Se]c2ccccc2)CCC1` (stereo not drawn), for which the GI50 is 12.5 µM (inactive) in assay [1]; 51.1 µM (inactive) in [2]; 16.5 µM (inactive) in [3]; 4.16 µM (inactive) in assay [4]; 42.8 µM (inactive) in assay [5]; 15.9 µM (inactive) in [6]. Besides, the GI50 is 28.1 µM (inactive) in assay [7]; 16.6 µM (inactive) in assay [8]; 18 µM (inactive) in assay [9]; 51.2 µM (inactive) in [10]; 13 µM (inactive) in assay [11]; 15.7 µM (inactive) in assay [12]. Also, the GI50 in [13] is > 100 µM (inactive); in assay [14], 19.1 µM (inactive); in assay [15], 6.4 µM (inactive); in assay [16], > 100 µM (inactive); in assay [17] it was 39.7 µM (inactive); in assay [18], 15.2 µM (inactive).

On to `CC(=O)OC1COC(N2C(=O)/C(=N\NC(N)=S)c3cc(Br)ccc32)C(OC(C)=O)C1OC(C)=O` (stereo not drawn), for which the GI50 in assay [1] was > 100 µM (inactive); in assay [2], > 100 µM (inactive); in assay [3] it was 5.77 µM (inactive); in assay [4], 25.6 µM (inactive); in assay [5], 48 µM (inactive); in assay [6], 39.3 µM (inactive). Besides, the GI50 was 32.7 µM (inactive) in assay [7]; > 100 µM (inactive) in [8]; 42.6 µM (inactive) in [9]; > 100 µM (inactive) in assay [10]; 17.6 µM (inactive) in assay [11]; 63.5 µM (inactive) in [12]. Also, the GI50 in assay [13] was > 100 µM (inactive); in [14] it was 85.9 µM (inactive); in [15], 19.5 µM (inactive); in [16], > 100 µM (inactive); in [17] it was > 100 µM (inactive); in assay [18] it was 35.6 µM (inactive).

For `CCOC(=O)Oc1ccc2[nH]c3c(C)cc(N)c(C)c3c2c1`, the GI50 is > 100 µM (inactive) in [1]; > 100 µM (inactive) in assay [2]; > 100 µM (inactive) in [3]; 55.5 µM (inactive) in assay [4]; > 100 µM (inactive) in assay [5]; 78.9 µM (inactive) in assay [6]. Besides, the GI50 in assay [7] is 87.7 µM (inactive); in assay [8] it was > 100 µM (inactive); in assay [9], > 100 µM (inactive); in assay [10] it was > 100 µM (inactive); in [11] it was 72.3 µM (inactive); in [13] it was > 100 µM (inactive). Moreover, the GI50 in assay [14], in assay [15], in assay [16] and in assay [17] was > 100 µM (inactive) each time.

Regarding `COC(=O)C1=CO[C@@H](OC2CC(CO)C(O)C(O)C2O)[C@@H]2[C@@H](C)[C@@H](OC(=O)/C=C/c3ccccc3)[C@@H](O)[C@H]12.COC(=O)C1=CO[C@@H](OC2CC(CO)C(O)C(O)C2O)[C@@H]2[C@@H](C)[C@@H](OC(=O)c3ccccc3)[C@@H](O)[C@H]12` (stereo partly drawn), the GI50 in assay [1], in [2], in assay [3], in assay [4], in assay [5] and in assay [6] was > 100 µM (inactive) throughout. Also, the GI50 in assay [7], in assay [8], in [9], in assay [10], in [11] and in [14] was > 100 µM (inactive) throughout. Besides, the GI50 in assay [15] is 66.7 µM (inactive); in [16], > 100 µM (inactive); in assay [17], > 100 µM (inactive); in assay [18] it was > 100 µM (inactive).
